According to the NIST ThermoML archive (doi:10.1016/j.jct.2015.01.013):
± gives the expanded uncertainty stated by the source. One block for each compound: values may come before it.

Columns and labels:
[1] = 298.15 K; 101.33 kPa; Liquid; Vibrating tube method
[2] = excess molar enthalpy (molar enthalpy of mixing); xn = mol fraction of the nth substance listed; conditions: 298.15 K, 101 kPa, Liquid, Flow calorimetry

mass density [1]: 710.7 ± 0.2 kg/m3
Structure (SMILES): C=C(C)CC(C)(C)C [2,4,4-trimethyl-1-pentene]

excess molar enthalpy ([2]; x2 = 0.023): 0.0571 ± 0.00287 kcal/mol
excess molar enthalpy ([2]; x2 = 0.1): 0.107 ± 0.00526 kcal/mol
excess molar enthalpy ([2]; x2 = 0.198): 0.125 ± 0.00621 kcal/mol
excess molar enthalpy ([2]; x2 = 0.301): 0.138 ± 0.00669 kcal/mol
excess molar enthalpy ([2]; x2 = 0.398): 0.14 ± 0.00669 kcal/mol
excess molar enthalpy ([2]; x2 = 0.498): 0.14 ± 0.00669 kcal/mol
excess molar enthalpy ([2]; x2 = 0.598): 0.135 ± 0.00645 kcal/mol
excess molar enthalpy ([2]; x2 = 0.698): 0.122 ± 0.00598 kcal/mol
excess molar enthalpy ([2]; x2 = 0.798): 0.102 ± 0.00502 kcal/mol
excess molar enthalpy ([2]; x2 = 0.899): 0.0674 ± 0.00335 kcal/mol
Structure (SMILES): C=C(C)CC(C)(C)C [2,4,4-trimethyl-1-pentene] + CO

mass density [1]: 773.5 ± 0.2 kg/m3
Structure (SMILES): C1CCCCC1 [cyclohexane]

excess molar enthalpy ([2]; x2 = 0.0995): 0.124 ± 0.00598 kcal/mol
excess molar enthalpy ([2]; x2 = 0.2009): 0.168 ± 0.00813 kcal/mol
excess molar enthalpy ([2]; x2 = 0.3009): 0.191 ± 0.00932 kcal/mol
excess molar enthalpy ([2]; x2 = 0.4014): 0.199 ± 0.00956 kcal/mol
excess molar enthalpy ([2]; x2 = 0.5016): 0.191 ± 0.00932 kcal/mol
excess molar enthalpy ([2]; x2 = 0.6011): 0.173 ± 0.00837 kcal/mol
excess molar enthalpy ([2]; x2 = 0.701): 0.143 ± 0.00693 kcal/mol
excess molar enthalpy ([2]; x2 = 0.8005): 0.105 ± 0.00526 kcal/mol
excess molar enthalpy ([2]; x2 = 0.9005): 0.0571 ± 0.00287 kcal/mol
Structure (SMILES): C1CCCCC1 [cyclohexane] + CC(C)O

mass density [1]: 786.2 ± 0.2 kg/m3
Structure (SMILES): CO [methanol]

mass density [1]: 780.8 ± 0.2 kg/m3
Structure (SMILES): CC(C)O [propan-2-ol]
